Laboratory results as given in patent publication US7754747B2, “Oxazolo-naphthyl acids” (Wyeth LLC, priority 2004, dated 2010).

What was measured:
[1] = target: T1, recombinant human plasminogen activator inhibitor-1 (PAI-1) (Homo sapiens, UniProt P05121); assay: Primary Screen for the PAI-1 Inhibition (residual tPA activity, Spectrozyme-tPA chromogenic substrate); assay type: biochemical; settings: pH 6.6 buffer; for inhibition at 10 µM: 10 μM test compound; for inhibition at 25 µM: 25 μM test compound
T1 construct: purchased Molecular Innovations, Royal Oak, Mich
Experimental: Test compounds are dissolved in DMSO at a final concentration of 10 mM, then diluted 100×in physiologic buffer. The inhibitory assay is initiated by the addition of the test compound (1-100 μM final concentration, maximun DMSO concentration of 0.2%) in a pH 6.6 buffer containing 140 Mn recombinant human plasminogen activator inhibitor-1 (PAI-1; Molecular Innovations, Royal Oak, Mich.). Following a 1 hour incubation at room temperature, 70 Mn of recombinant human tissue plasminogen activator (tPA) is added, and the combination of the test compound, PAI-1 and tPA is incubated for an additional 30 minutes. Following the second incubation, Spectrozyme-tPA (American Diagnostica, Greenwich, Conn.), a chromogenic substrate for tPA, is added and absorbance read at 405 nm at 0 and 60 minutes. Relative PAI-1 inhibition is equal to the residual tPA activity in the presence of the test compound and PAI-1. Control treatments include the complete inhibition of tPA by PAI-1 at the molar ratio employed (2:1), and the absence of any effect of the test compound on tPA alone.

human PAI-1 = human PAI-1 (Homo sapiens, UniProt P05121); assay: Assay for determining IC50 of inhibition of PAI-1 (Antibody Assay, active PAI-1 bound to tPA-coated plate); assay type: binding; settings: pH 7.5 buffer, human PAI-1 50 ng/ml
Experimental: This assay is based upon the non-SDS dissociable interaction between tPA and active PAI-1. Assay plates are initially coated with human tPA (10 μg/ml). Test compounds of the present invention are dissolved in DMSO at 10 mM, then diluted with physiologic buffer (pH 7.5) to a final concentration of 1-50 μM. Test compounds are incubated with human PAI-1 (50 ng/ml) for 15 minutes at room temperature. The tPA-coated plate is washed with a solution of 0.05% Tween 20 and 0.1% BSA, then the plate is blocked with a solution of 3% BSA. An aliquot of the oxazolo-naphthyl acid/PAI-1 solution is then added to the tPA-coated plate, incubated at room temperature for 1 hour, and washed. Active PAI-1 bound to the plate is assessed by adding an aliquot of a 1:1000 dilution of the 33B8 monoclonal antibody against human PAI-1, and incubating the plate at room temperature for 1 hour (Molecular Innovations, Royal Oak, Mich.). The plate is again washed, and a solution of goat anti-mouse IgG-alkaline phosphatase conjugate is added at a 1:50,000 dilution in goat serum. The plate is incubated 30 minutes at room temperature, washed, and a solution of alkaline phosphatase substrate is added. The plate is incubated 45 minutes at room temperature, and color development is determined at OD405nm. The quantitation of active PAI-1 bound to tPA at varying concentrations of the test compound is used to determine the IC50. Results are analyzed using a logarithmic best-fit equation. The assay sensitivity is 5 ng/ml of human PAI-1 as determined from a standard curve ranging from 0-100 ng/ml.

T1 sequence (P05121 24-402): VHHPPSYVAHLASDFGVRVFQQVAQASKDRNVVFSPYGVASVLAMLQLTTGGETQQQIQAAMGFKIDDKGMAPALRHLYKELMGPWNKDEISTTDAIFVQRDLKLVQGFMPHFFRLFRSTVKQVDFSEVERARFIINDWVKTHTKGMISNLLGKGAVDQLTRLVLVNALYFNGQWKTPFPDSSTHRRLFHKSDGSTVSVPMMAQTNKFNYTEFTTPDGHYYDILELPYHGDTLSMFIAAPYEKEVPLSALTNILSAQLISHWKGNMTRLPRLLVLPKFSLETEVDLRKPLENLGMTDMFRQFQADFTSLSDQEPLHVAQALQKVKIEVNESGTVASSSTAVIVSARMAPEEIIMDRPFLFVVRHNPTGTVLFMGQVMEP
Sequence of human PAI-1 (P05121 24-402): as above

Row | inhibition at 10 µM [1] [%] | inhibition at 25 µM [1] [%] | IC50 (human PAI-1) [µM] | melting point [°C] | Compound
1 | 17 | 65 | 68.4 | 239 to 241 | c1ccc(-c2ncc(-c3ccc4cc(OCc5nnn[nH]5)ccc4c3)o2)cc1 [Example 1, 5-({[6-(2-phenyl-1,3-oxazol-5-yl)-2-naphthyl]oxy}methyl)-1H-tetraazole]
2 | 12 | 52 | 19.4 | 238 to 240 | CCCCc1oc2ccccc2c1-c1ncc(-c2ccc3cc(OCc4nnn[nH]4)ccc3c2)o1 [Example 2, 5-[({6-[2-(2-butyl-1-benzofuran-3-yl)-1,3-oxazol-5-yl]-2-naphthyl}oxy)methyl]-1H-tetraazole]
3 | 32 | 66 | 26.6 | 174 to 177 | CCCCc1oc2ccccc2c1-c1ncc(-c2ccc3cc(OC(Cc4ccccc4)C(=O)O)ccc3c2)o1 (centres unmarked) [Example 3, 2-({6-[2-(2-butyl-1-benzofuran-3-yl)-1,3-oxazol-5-yl]-2-naphthyl}oxy)-3-phenylpropanoic acid]
4 | 23 | 46 | 22.7 | 214 to 216 | CCCCc1oc2ccccc2c1-c1ncc(-c2ccc3cc(OCC(=O)O)ccc3c2)o1 [Example 4, ({6-[2-(2-butyl-1-benzofuran-3-yl)-1,3-oxazol-5-yl]-2-naphthyl}oxy)acetic acid]
5 | 1 | 34 | 47.4 | 125 to 127 | O=C(O)C(Cc1ccccc1)Oc1ccc2cc(-c3cnc(-c4cn(Cc5ccccc5)c5ccccc45)o3)ccc2c1 (centres unmarked) [Example 5, 2-({6-[2-(1-benzyl-1H-indol-3-yl)-1,3-oxazol-5-yl]-2-naphthyl}oxy)-3-phenylpropanoic acid]
6 | 4 | 28 | – | 238 to 242 | O=C(O)COc1ccc2cc(-c3cnc(-c4cn(Cc5ccccc5)c5ccccc45)o3)ccc2c1 [Example 6, ({6-[2-(1-benzyl-1H-indol-3-yl)-1,3-oxazol-5-yl]-2-naphthyl}oxy)acetic acid]
7 | 19 | 61 | – | 244 to 246 | c1ccc(Cn2cc(-c3ncc(-c4ccc5cc(OCc6nnn[nH]6)ccc5c4)o3)c3ccccc32)cc1 [Example 7, 1-benzyl-3-{5-[6-(1H-tetrazol-5-ylmethoxy)-2-naphthyl]-1,3-oxazol-2-yl}-1H-indole]
8 | 2 | 75 | – | 149 to 151 | Cn1cc(-c2ncc(-c3ccc4cc(OC(Cc5ccccc5)C(=O)O)ccc4c3)o2)c2ccccc21 (centres unmarked) [Example 8, 2-({6-[2-(1-methyl-1H-indol-3-yl)-1,3-oxazol-5-yl]-2-naphthyl}oxy)-3-phenylpropanoic acid]
9 | 3 | 24 | – | 269 to 272 | Cn1cc(-c2ncc(-c3ccc4cc(OCC(=O)O)ccc4c3)o2)c2ccccc21 [Example 9, ({6-[2-(1-Methyl-1H-indol-3-yl)-1,3-oxazol-5-yl]-2-naphthyl}oxy)acetic acid]
10 | 16 | 35 | – | 254 to 256 | Cn1cc(-c2ncc(-c3ccc4cc(OCc5nnn[nH]5)ccc4c3)o2)c2ccccc21 [Example 10, 1-methyl-3-{5-[6-(1H-tetrazol-5-ylmethoxy)-2-naphthyl]-1,3-oxazol-2-yl}-1H-indole]
11 | 18 | 31 | – | 78 to 82 | O=C(O)C(Cc1ccccc1)Oc1ccc2cc(-c3cnc(Cc4ccccc4)o3)ccc2c1 (centres unmarked) [Example 11, 2-{[6-(2-benzyl-1,3-oxazol-5-yl)-2-naphthyl]oxy}-3-phenylpropanoic acid]
12 | 0 | 26 | – | 236 to 238 | O=C(O)COc1ccc2cc(-c3cnc(Cc4ccccc4)o3)ccc2c1 [Example 12, {[6-(2-benzyl-1,3-oxazol-5-yl)-2-naphthyl]oxy}acetic acid]
13 | 11 | 23 | – | 227 to 228 | c1ccc(Cc2ncc(-c3ccc4cc(OCc5nnn[nH]5)ccc4c3)o2)cc1 [Example 13, 5-({[6-(2-benzyl-1,3-oxazol-5-yl)-2-naphthyl]oxy}methyl)-1H-tetraazole]
14 | 12 | 17 | – | 258 to 260 | O=C(O)COc1ccc2cc(-c3cnc(Cc4ccc5ccccc5c4)o3)ccc2c1 [Example 14, ({6-[2-(2-naphthylmethyl)-1,3-oxazol-5-yl]-2-naphthyl}oxy)acetic acid]
15 | 22 | 48 | – | 179 to 182 | c1ccc2cc(Cc3ncc(-c4ccc5cc(OCc6nnn[nH]6)ccc5c4)o3)ccc2c1 [Example 15, 5-[({6-[2-(2-naphthylmethyl)-1,3-oxazol-5-yl]-2-naphthyl}oxy)methyl]-1H-tetrazole]
16 | 11 | 16 | – | 235 to 237 | CCCCc1oc2ccccc2c1-c1ncc(-c2ccc3c(Br)c(OCc4nnn[nH]4)ccc3c2)o1 [Example 16, 5-[({1-bromo-6-[2-(2-butyl-1-benzofuran-3-yl)-1,3-oxazol-5-yl]-2-naphthyl}oxy)methyl]-1H-tetrazole]
17 | 14 | 20 | – | 251 to 254 | CCCCc1oc2ccccc2c1-c1ncc(-c2ccc3cc(OCc4ccc(C(=O)O)cc4)ccc3c2)o1 [Example 17, 4-[({6-[2-(2-butyl-1-benzofuran-3-yl)-1,3-oxazol-5-yl]-2-naphthyl}oxy)methyl]benzoic acid]
18 | 33 | 62 | – | 285 to 287 | CCCCc1oc2ccccc2c1-c1ncc(-c2ccc3cc(OCc4ccc(C(=O)O)cc4C(=O)O)ccc3c2)o1 [Example 18, 4-[({6-[2-(2-butyl-1-benzofuran-3-yl)-1,3-oxazol-5-yl]-2-naphthyl}oxy)methyl]isophthalic acid]
19 | 12 | 23 | – | 281 to 283 | CCCCc1oc2ccccc2c1-c1ncc(-c2ccc3c(Br)c(OCc4ccc(C(=O)O)cc4)ccc3c2)o1 [Example 19, 4-[({1-bromo-6-[2-(2-butyl-1-benzofuran-3-yl)-1,3-oxazol-5-yl]-2-naphthyl}oxy)methyl]benzoic acid]
